We go through one molecule from patent publication US3931140A, “(H-gly-gly-tyr-ala)^1 -somatostatin” (American Home Products Corporation, priority 1975, dated 1976).

In this test the test system is growth hormone present in the plasma. Nature of the test: In vivo growth hormone in plasma of Nembutal-treated rats by radioimmunoassay. The conditions noted are these: for growth hormone per milliliter of plasma (average): 500 micrograms per kilogram, blood sampled 15 minutes after administration, p<0.01. As for the experimental part: The in vivo activity of the heptadecapeptide of this invention was established by injecting Nembutal intraperitoneally into rats weighing between 200 to 250 grams in an amount of 50 milligrams per kilogram body weight. After five minutes, the heptadecapeptide of this invention was administered to the rats in a dose of 500 micrograms per kilogram body weight from a solution made from three milligrams of the heptadecapeptide,1.2 milliliters of water and 4.8 milliliters of polyethylene glycol (PEG 400). The rats blood was sampled 15 minutes after administration of the heptadecapeptide and the amount of growth hormone present in the plasma was determined by radioimmunoassay.

For the molecule `C[C@H](NC(=O)[C@H](Cc1ccc(O)cc1)NC(=O)CNC(=O)CN)C(=O)NCC(=O)N[C@H]1CSSC[C@@H](C(=O)O)NC(=O)[C@H](CO)NC(=O)[C@H]([C@@H](C)O)NC(=O)[C@H](Cc2ccccc2)NC(=O)[C@H]([C@@H](C)O)NC(=O)[C@H](CCCCN)NC(=O)[C@H](Cc2c[nH]c3ccccc23)NC(=O)[C@H](Cc2ccccc2)NC(=O)[C@H](Cc2ccccc2)NC(=O)[C@H](CC(N)=O)NC(=O)[C@H](CCCCN)NC1=O` [heptadecapeptide, Glycyl-glycyl-L-tyrosyl-L-alanyl-glycyl-L-cysteinyl-L-lysyl-L-asparaginyl-L-phenylalanyl-L-phenylalanyl-L-tryptophyl-L-lysyl-L-threonyl-L-phenylalanyl-L-threonyl-L-seryl-L-cysteine[6-17 cyclic disulfide]], the “growth hormone per milliliter of plasma (average)” value (another experiment, twelve rats for control and testing, control 66 ± 10) was 21 ± 7 nanograms growth hormone per milliliter of plasma; the “growth hormone per milliliter of plasma (average)” value (first determination, eight treated rats, Nembutal 50 mg/kg i.p., control 86 ± 15) is given as 9 ± 4 nanograms growth hormone per milliliter of plasma. Besides, the “activity in reducing growth hormone concentrations in blood plasma compared with somatostatin” value (comparison with somatostatin, in words) is given as “exceeds the activity of somatostatin”.
